Experimental data: PMC4009756, “In Vitro High Throughput Screening, What Next? Lessons from the Screening for Aurora Kinase Inhibitors” (Biology, 2014)

Experiments:
Type in all cases: biochemical
[1] = molecular target: T1, aurora kinase A (Homo sapiens, UniProt O14965); assay: in vitro histone H3 phosphorylation by recombinant kinase domain; settings: read-out: % inhibition at 1.5 μM
T1 construct: gene AURKA; recombinant kinase domain
T1 sequence (O14965 133-383 limits assumed): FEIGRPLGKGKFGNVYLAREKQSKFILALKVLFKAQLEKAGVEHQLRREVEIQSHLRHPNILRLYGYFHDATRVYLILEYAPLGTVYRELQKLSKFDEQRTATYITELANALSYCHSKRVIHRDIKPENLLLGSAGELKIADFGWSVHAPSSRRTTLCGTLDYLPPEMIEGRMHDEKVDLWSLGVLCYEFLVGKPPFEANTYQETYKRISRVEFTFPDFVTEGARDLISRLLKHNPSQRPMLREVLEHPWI

[2] = molecular target: T2, TrkA "Tropomyosin Related kinase A" (Homo sapiens, UniProt P04629); assay: in vitro kinase profiling (MRC Dundee), […], duplicate
T2 construct: gene NTRK1; recombinant kinase (NM_001007792.1)

[3] = molecular target: T3, GCK "Germinal central kinase" (Homo sapiens, UniProt Q12851); assay: as above
T3 construct: gene MAP4K2; recombinant kinase (BC047865)
T3 sequence (Q12851 1-820): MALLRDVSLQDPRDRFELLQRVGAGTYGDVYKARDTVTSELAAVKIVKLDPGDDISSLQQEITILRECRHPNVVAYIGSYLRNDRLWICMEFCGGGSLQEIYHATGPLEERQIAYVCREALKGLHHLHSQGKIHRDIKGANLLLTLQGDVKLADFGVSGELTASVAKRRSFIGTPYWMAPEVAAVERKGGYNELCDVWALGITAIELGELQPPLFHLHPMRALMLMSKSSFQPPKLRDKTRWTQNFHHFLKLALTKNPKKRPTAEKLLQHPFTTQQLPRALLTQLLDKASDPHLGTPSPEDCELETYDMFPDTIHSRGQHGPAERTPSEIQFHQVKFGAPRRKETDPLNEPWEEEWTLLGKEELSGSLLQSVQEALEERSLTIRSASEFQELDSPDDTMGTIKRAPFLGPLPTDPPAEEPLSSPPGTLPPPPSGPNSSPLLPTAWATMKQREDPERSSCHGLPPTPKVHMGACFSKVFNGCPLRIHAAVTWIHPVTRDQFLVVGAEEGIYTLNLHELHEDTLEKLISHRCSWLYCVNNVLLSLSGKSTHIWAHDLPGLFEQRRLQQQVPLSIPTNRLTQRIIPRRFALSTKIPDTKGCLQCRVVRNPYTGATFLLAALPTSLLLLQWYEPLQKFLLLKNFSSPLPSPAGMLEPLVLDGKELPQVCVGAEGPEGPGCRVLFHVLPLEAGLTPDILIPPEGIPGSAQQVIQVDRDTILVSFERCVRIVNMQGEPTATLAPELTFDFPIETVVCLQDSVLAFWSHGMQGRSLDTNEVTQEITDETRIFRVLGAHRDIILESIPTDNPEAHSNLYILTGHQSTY

[4] = molecular target: T4, Tak1 "Transforming growth factor beta activated kinase" (Homo sapiens, UniProt O43318); assay: as above
T4 construct: gene MAP3K7; recombinant kinase (NM_003188)
T4 sequence (O43318 1-606): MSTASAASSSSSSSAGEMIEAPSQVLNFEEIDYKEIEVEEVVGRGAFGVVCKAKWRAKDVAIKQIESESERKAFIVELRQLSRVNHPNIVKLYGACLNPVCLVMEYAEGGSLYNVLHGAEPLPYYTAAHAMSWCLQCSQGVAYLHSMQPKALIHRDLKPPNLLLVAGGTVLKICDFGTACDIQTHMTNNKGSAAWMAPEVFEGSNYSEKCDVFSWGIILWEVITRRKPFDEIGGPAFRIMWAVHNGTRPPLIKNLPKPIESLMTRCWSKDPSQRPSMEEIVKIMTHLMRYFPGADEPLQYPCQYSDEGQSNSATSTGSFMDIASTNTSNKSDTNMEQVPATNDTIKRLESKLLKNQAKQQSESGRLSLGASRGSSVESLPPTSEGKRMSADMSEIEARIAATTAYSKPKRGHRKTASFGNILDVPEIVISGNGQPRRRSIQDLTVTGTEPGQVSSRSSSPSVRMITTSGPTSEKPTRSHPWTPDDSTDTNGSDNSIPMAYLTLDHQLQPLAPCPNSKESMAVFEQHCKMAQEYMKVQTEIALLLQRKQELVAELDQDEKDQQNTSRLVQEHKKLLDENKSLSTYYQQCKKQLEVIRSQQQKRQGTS

[5] = molecular target: T5, NUAK1-ARK5 "SnF1-like Kinase" (Homo sapiens, UniProt O60285); assay: as above
T5 construct: recombinant kinase (NM_014840)
T5 sequence (O60285 1-661): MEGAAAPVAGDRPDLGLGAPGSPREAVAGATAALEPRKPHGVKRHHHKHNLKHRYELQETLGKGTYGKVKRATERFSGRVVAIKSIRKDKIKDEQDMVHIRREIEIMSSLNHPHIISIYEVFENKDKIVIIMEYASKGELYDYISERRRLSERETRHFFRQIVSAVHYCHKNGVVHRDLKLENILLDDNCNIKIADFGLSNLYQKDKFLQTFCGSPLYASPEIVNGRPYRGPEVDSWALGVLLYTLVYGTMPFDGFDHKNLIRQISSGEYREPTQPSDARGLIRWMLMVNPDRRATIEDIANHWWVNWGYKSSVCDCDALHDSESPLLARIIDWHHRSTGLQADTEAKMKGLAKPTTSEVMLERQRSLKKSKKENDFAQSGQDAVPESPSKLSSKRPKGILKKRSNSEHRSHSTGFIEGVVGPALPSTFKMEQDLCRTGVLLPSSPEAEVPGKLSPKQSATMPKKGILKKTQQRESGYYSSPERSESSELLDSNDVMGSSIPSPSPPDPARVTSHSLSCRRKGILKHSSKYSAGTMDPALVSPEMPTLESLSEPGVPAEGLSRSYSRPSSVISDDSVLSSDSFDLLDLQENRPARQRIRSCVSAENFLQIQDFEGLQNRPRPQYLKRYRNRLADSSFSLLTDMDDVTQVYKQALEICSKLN

T2 sequence (P04629 33-796): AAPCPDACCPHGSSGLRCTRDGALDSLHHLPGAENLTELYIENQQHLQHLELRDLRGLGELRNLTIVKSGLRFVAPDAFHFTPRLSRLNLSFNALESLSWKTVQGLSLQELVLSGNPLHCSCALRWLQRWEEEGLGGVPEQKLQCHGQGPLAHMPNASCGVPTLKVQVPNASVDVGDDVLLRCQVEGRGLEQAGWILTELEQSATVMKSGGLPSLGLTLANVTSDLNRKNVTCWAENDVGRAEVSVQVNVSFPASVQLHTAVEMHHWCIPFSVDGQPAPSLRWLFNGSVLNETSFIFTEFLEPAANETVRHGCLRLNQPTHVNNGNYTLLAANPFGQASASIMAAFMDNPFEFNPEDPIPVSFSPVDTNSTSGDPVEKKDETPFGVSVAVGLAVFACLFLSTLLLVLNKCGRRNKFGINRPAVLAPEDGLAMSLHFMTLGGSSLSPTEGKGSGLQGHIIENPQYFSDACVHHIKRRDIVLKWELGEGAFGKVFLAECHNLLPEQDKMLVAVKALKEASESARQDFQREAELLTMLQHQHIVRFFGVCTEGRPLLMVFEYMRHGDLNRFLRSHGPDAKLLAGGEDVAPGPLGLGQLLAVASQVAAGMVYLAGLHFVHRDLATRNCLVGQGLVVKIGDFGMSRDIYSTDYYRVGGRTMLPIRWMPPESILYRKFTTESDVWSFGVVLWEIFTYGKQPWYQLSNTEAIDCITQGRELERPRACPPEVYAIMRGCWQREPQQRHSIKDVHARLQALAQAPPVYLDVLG

## O=c1cc(-c2ccc(O)cc2)oc2cc(O)cc(O)c12 [apigenin]
[1]
  inhibition at 1.5 µM: 33%

## O=c1cc(-c2ccc(O)c(O)c2)oc2cc(O)cc(O)c12 [luteonin]
[1]
  inhibition at 1.5 µM: 50%

## Cc1cncc2c1[nH]c1ccc3cc(OCCN(C)C)ccc3c12 [C2]
[2]
  remaining activity at 1 µM: 36 ± 2%
[3]
  remaining activity at 1 µM: 32 ± 1%
[4]
  remaining activity at 1 µM: 55 ± 3%
[5]
  remaining activity at 1 µM: 53 ± 2%
